Source: PubChem BioAssay (NCI)
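1) Cells in 96-well plates. 2) Compound, 48 h, 5 concentrations. 3) Linear interpolation between surrounding doses. 4) Unreached endpoint = highest concentration. TGI: concentration producing complete growth inhibition.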

How the values were obtained:
Test in all cases: NCI anticancer screen, dose series, 48 h
UO-31 renal = test system: UO-31 renal
NCI-H460 lung = test system: NCI-H460 lung
IGROV1 ovarian = test system: IGROV1 ovarian
SF-295 CNS = test system: SF-295 CNS
RXF 393 renal = test system: RXF 393 renal
SK-MEL-2 melanoma = test system: SK-MEL-2 melanoma
TK-10 renal = test system: TK-10 renal
UACC-257 melanoma = test system: UACC-257 melanoma
ACHN renal = test system: ACHN renal
RPMI-8226 leukemia = test system: RPMI-8226 leukemia
U251 CNS = test system: U251 CNS
COLO 205 colon = test system: COLO 205 colon
BT-549 breast = test system: BT-549 breast
MDA-N = test system: MDA-N
K-562 leukemia = test system: K-562 leukemia
A498 renal = test system: A498 renal
T-47D breast = test system: T-47D breast
MDA-MB-231 breast = test system: MDA-MB-231 breast
NCI/ADR-RES ovarian = test system: NCI/ADR-RES ovarian
SNB-19 CNS = test system: SNB-19 CNS
NCI-H23 lung = test system: NCI-H23 lung
OVCAR-5 ovarian = test system: OVCAR-5 ovarian
HS 578T breast = test system: HS 578T breast
SR leukemia = test system: SR leukemia
MALME-3M melanoma = test system: MALME-3M melanoma
SF-268 CNS = test system: SF-268 CNS
OVCAR-8 ovarian = test system: OVCAR-8 ovarian
SNB-75 CNS = test system: SNB-75 CNS
A549 NSCLC = test system: A549 NSCLC
HCT-116 colon = test system: HCT-116 colon
SK-OV-3 ovarian = test system: SK-OV-3 ovarian
SK-MEL-5 melanoma = test system: SK-MEL-5 melanoma
HCT-15 colon = test system: HCT-15 colon
KM12 colon = test system: KM12 colon
OVCAR-4 ovarian = test system: OVCAR-4 ovarian
UACC-62 melanoma = test system: UACC-62 melanoma
SW-620 colon = test system: SW-620 colon
CAKI-1 renal = test system: CAKI-1 renal
HT29 colon = test system: HT29 colon
OVCAR-3 ovarian = test system: OVCAR-3 ovarian
NCI-H522 lung = test system: NCI-H522 lung
PC-3 prostate = test system: PC-3 prostate
M14 melanoma = test system: M14 melanoma
SN12C renal = test system: SN12C renal
HOP-62 NSCLC = test system: HOP-62 NSCLC
DU-145 prostate = test system: DU-145 prostate
NCI-H226 lung = test system: NCI-H226 lung
HCC-2998 colon = test system: HCC-2998 colon
MCF7 breast = test system: MCF7 breast
EKVX NSCLC = test system: EKVX NSCLC
MOLT-4 leukemia = test system: MOLT-4 leukemia
SK-MEL-28 melanoma = test system: SK-MEL-28 melanoma
786-0 renal = test system: 786-0 renal
CCRF-CEM leukemia = test system: CCRF-CEM leukemia
SF-539 CNS = test system: SF-539 CNS
LOX IMVI melanoma = test system: LOX IMVI melanoma
HOP-92 NSCLC = test system: HOP-92 NSCLC
HL-60(TB) leukemia = test system: HL-60(TB) leukemia
MDA-MB-435 = test system: MDA-MB-435

COc1cc(C(c2ccc3c(c2)OCO3)C2SCCCS2)cc(OC)c1OC (stereo unspecified)
TGI (UO-31 renal): > 100 µM
TGI (NCI-H460 lung): 2.92 µM
TGI (IGROV1 ovarian): 8.17 µM
TGI (SF-295 CNS): 4.66 µM
TGI (RXF 393 renal): 4.47 µM
TGI (SK-MEL-2 melanoma): > 100 µM
TGI (TK-10 renal): > 100 µM
TGI (UACC-257 melanoma): > 100 µM
TGI (ACHN renal): > 100 µM
TGI (RPMI-8226 leukemia): 7.77 µM
TGI (U251 CNS): 21.5 µM
TGI (COLO 205 colon): 3.08 µM
TGI (BT-549 breast): > 100 µM
TGI (MDA-N): 1.77 µM
TGI (K-562 leukemia): 4.73 µM
TGI (A498 renal): 5.11 µM
TGI (T-47D breast): > 100 µM
TGI (MDA-MB-231 breast): 6.21 µM
TGI (NCI/ADR-RES ovarian): 6.11 µM
TGI (SNB-19 CNS): 5.41 µM
TGI (NCI-H23 lung): 51.8 µM
TGI (OVCAR-5 ovarian): 66.2 µM
TGI (HS 578T breast): 7.97 µM
TGI (SR leukemia): 2.07 µM
TGI (MALME-3M melanoma): > 100 µM
TGI (SF-268 CNS): > 100 µM
TGI (OVCAR-8 ovarian): 64.8 µM
TGI (SNB-75 CNS): 5.83 µM
TGI (A549 NSCLC): 53.3 µM
TGI (HCT-116 colon): 10.6 µM
TGI (SK-OV-3 ovarian): > 100 µM
TGI (SK-MEL-5 melanoma): 9.21 µM
TGI (HCT-15 colon): 6.58 µM
TGI (KM12 colon): 26 µM
TGI (OVCAR-4 ovarian): 75.8 µM
TGI (UACC-62 melanoma): 28.2 µM
TGI (SW-620 colon): 33 µM
TGI (CAKI-1 renal): 20.1 µM
TGI (HT29 colon): 3.42 µM
TGI (OVCAR-3 ovarian): 27.4 µM
TGI (NCI-H522 lung): 5.87 µM
TGI (PC-3 prostate): > 100 µM
TGI (M14 melanoma): 95.5 µM
TGI (SN12C renal): 8.99 µM
TGI (HOP-62 NSCLC): > 100 µM
TGI (DU-145 prostate): 8.59 µM
TGI (NCI-H226 lung): 7.11 µM
TGI (HCC-2998 colon): 8.8 µM
TGI (MCF7 breast): 10.1 µM
TGI (EKVX NSCLC): 19.6 µM
TGI (MOLT-4 leukemia): 8.29 µM
TGI (SK-MEL-28 melanoma): > 100 µM
TGI (786-0 renal): 9.68 µM
TGI (CCRF-CEM leukemia): 3.56 µM

Cc1c(C#N)c2nc3ccccc3n2c(=O)/c1=C/Nc1ccc(Cl)cc1
TGI (UO-31 renal): 70.9 µM
TGI (NCI-H460 lung): > 100 µM
TGI (IGROV1 ovarian): > 100 µM
TGI (SF-295 CNS): 61.5 µM
TGI (RXF 393 renal): 25.6 µM
TGI (SK-MEL-2 melanoma): 46.6 µM
TGI (TK-10 renal): 35.7 µM
TGI (UACC-257 melanoma): > 100 µM
TGI (ACHN renal): 25 µM
TGI (RPMI-8226 leukemia): > 100 µM
TGI (U251 CNS): 24.6 µM
TGI (SF-539 CNS): 30.5 µM
TGI (COLO 205 colon): > 100 µM
TGI (BT-549 breast): 99.6 µM
TGI (MDA-N): > 100 µM
TGI (K-562 leukemia): > 100 µM
TGI (A498 renal): 72.5 µM
TGI (T-47D breast): > 100 µM
TGI (MDA-MB-231 breast): 77.9 µM
TGI (NCI/ADR-RES ovarian): > 100 µM
TGI (SNB-19 CNS): 27.9 µM
TGI (NCI-H23 lung): 59.8 µM
TGI (OVCAR-5 ovarian): > 100 µM
TGI (HS 578T breast): 54.5 µM
TGI (SR leukemia): > 100 µM
TGI (MALME-3M melanoma): > 100 µM
TGI (SF-268 CNS): > 100 µM
TGI (OVCAR-8 ovarian): > 100 µM
TGI (SNB-75 CNS): 23.1 µM
TGI (A549 NSCLC): > 100 µM
TGI (HCT-116 colon): > 100 µM
TGI (SK-OV-3 ovarian): 32.4 µM
TGI (SK-MEL-5 melanoma): > 100 µM
TGI (HCT-15 colon): > 100 µM
TGI (LOX IMVI melanoma): > 100 µM
TGI (KM12 colon): > 100 µM
TGI (OVCAR-4 ovarian): > 100 µM
TGI (UACC-62 melanoma): 47.4 µM
TGI (SW-620 colon): > 100 µM
TGI (CAKI-1 renal): > 100 µM
TGI (HT29 colon): > 100 µM
TGI (NCI-H522 lung): > 100 µM
TGI (M14 melanoma): 40.9 µM
TGI (SN12C renal): > 100 µM
TGI (HOP-62 NSCLC): 33.1 µM
TGI (NCI-H226 lung): > 100 µM
TGI (HCC-2998 colon): > 100 µM
TGI (HOP-92 NSCLC): 67.5 µM
TGI (HL-60(TB) leukemia): > 100 µM
TGI (MCF7 breast): > 100 µM
TGI (EKVX NSCLC): > 100 µM
TGI (MDA-MB-435): > 100 µM
TGI (MOLT-4 leukemia): > 100 µM
TGI (SK-MEL-28 melanoma): > 100 µM
TGI (786-0 renal): 20.7 µM

Cc1cccc(-c2nc(-c3cnccn3)n(Cc3ccccc3)n2)c1
TGI (UO-31 renal): > 100 µM
TGI (NCI-H460 lung): > 100 µM
TGI (IGROV1 ovarian): > 100 µM
TGI (SF-295 CNS): > 100 µM
TGI (RXF 393 renal): 94.1 µM
TGI (UACC-257 melanoma): > 100 µM
TGI (RPMI-8226 leukemia): > 100 µM
TGI (U251 CNS): > 100 µM
TGI (SF-539 CNS): > 100 µM
TGI (COLO 205 colon): > 100 µM
TGI (BT-549 breast): > 100 µM
TGI (MDA-N): > 100 µM
TGI (K-562 leukemia): > 100 µM
TGI (T-47D breast): > 100 µM
TGI (MDA-MB-231 breast): > 100 µM
TGI (NCI/ADR-RES ovarian): > 100 µM
TGI (SNB-19 CNS): > 100 µM
TGI (NCI-H23 lung): > 100 µM
TGI (OVCAR-5 ovarian): > 100 µM
TGI (SR leukemia): > 100 µM
TGI (SF-268 CNS): > 100 µM
TGI (OVCAR-8 ovarian): > 100 µM
TGI (SNB-75 CNS): 30.2 µM
TGI (A549 NSCLC): > 100 µM
TGI (HCT-116 colon): > 100 µM
TGI (SK-OV-3 ovarian): > 100 µM
TGI (SK-MEL-5 melanoma): > 100 µM
TGI (HCT-15 colon): > 100 µM
TGI (LOX IMVI melanoma): > 100 µM
TGI (KM12 colon): > 100 µM
TGI (OVCAR-4 ovarian): > 100 µM
TGI (UACC-62 melanoma): > 100 µM
TGI (SW-620 colon): > 100 µM
TGI (HT29 colon): > 100 µM
TGI (OVCAR-3 ovarian): > 100 µM
TGI (NCI-H522 lung): > 100 µM
TGI (PC-3 prostate): > 100 µM
TGI (M14 melanoma): > 100 µM
TGI (SN12C renal): > 100 µM
TGI (HOP-62 NSCLC): > 100 µM
TGI (DU-145 prostate): > 100 µM
TGI (HCC-2998 colon): > 100 µM
TGI (HOP-92 NSCLC): 79.6 µM
TGI (HL-60(TB) leukemia): > 100 µM
TGI (MCF7 breast): > 100 µM
TGI (MDA-MB-435): > 100 µM
TGI (MOLT-4 leukemia): > 100 µM
TGI (SK-MEL-28 melanoma): > 100 µM
TGI (786-0 renal): > 100 µM
TGI (CCRF-CEM leukemia): > 100 µM

CCCCCCc1cc2cc(C(=O)Nc3cccc(F)c3)c(=N)oc2cc1O
TGI (UO-31 renal): 12.4 µM
TGI (NCI-H460 lung): > 100 µM
TGI (IGROV1 ovarian): 4 µM
TGI (SF-295 CNS): 15.9 µM
TGI (SK-MEL-2 melanoma): 5.44 µM
TGI (UACC-257 melanoma): 11.9 µM
TGI (ACHN renal): > 100 µM
TGI (RPMI-8226 leukemia): 9.4 µM
TGI (U251 CNS): 6.58 µM
TGI (SF-539 CNS): 19.2 µM
TGI (COLO 205 colon): 34.7 µM
TGI (BT-549 breast): 6.19 µM
TGI (MDA-N): 11.8 µM
TGI (K-562 leukemia): 10.5 µM
TGI (A498 renal): 15 µM
TGI (T-47D breast): 7.35 µM
TGI (NCI/ADR-RES ovarian): 7.54 µM
TGI (SNB-19 CNS): 23.9 µM
TGI (NCI-H23 lung): 5.06 µM
TGI (OVCAR-5 ovarian): 48.6 µM
TGI (HS 578T breast): 6.81 µM
TGI (SR leukemia): 6.29 µM
TGI (MALME-3M melanoma): 8.75 µM
TGI (SF-268 CNS): 10.6 µM
TGI (OVCAR-8 ovarian): 3.56 µM
TGI (A549 NSCLC): 13.4 µM
TGI (HCT-116 colon): 11.1 µM
TGI (SK-OV-3 ovarian): 13.3 µM
TGI (SK-MEL-5 melanoma): 2.85 µM
TGI (HCT-15 colon): 5.87 µM
TGI (LOX IMVI melanoma): 3.41 µM
TGI (KM12 colon): 8.3 µM
TGI (OVCAR-4 ovarian): 12.3 µM
TGI (UACC-62 melanoma): 7.04 µM
TGI (SW-620 colon): > 100 µM
TGI (CAKI-1 renal): 10.2 µM
TGI (HT29 colon): 78.6 µM
TGI (OVCAR-3 ovarian): 23.7 µM
TGI (NCI-H522 lung): 5.33 µM
TGI (PC-3 prostate): 14 µM
TGI (M14 melanoma): 11.3 µM
TGI (HOP-62 NSCLC): 17.7 µM
TGI (DU-145 prostate): 12.2 µM
TGI (HCC-2998 colon): 11.6 µM
TGI (HL-60(TB) leukemia): 5.33 µM
TGI (MCF7 breast): 11.7 µM
TGI (EKVX NSCLC): 6.44 µM
TGI (MDA-MB-435): 6.51 µM
TGI (MOLT-4 leukemia): 7.69 µM
TGI (SK-MEL-28 melanoma): 9.51 µM
TGI (786-0 renal): 11.5 µM
TGI (CCRF-CEM leukemia): 4.97 µM
